Experiments:
bedstraw = experiment: Test B pre/postemergence bedstraw; format: in vivo, Galium aparine; settings: for Bedstraw plant response rating: Rate 500 g/ha, scale of 0 to 10 where 0 is no effect and 10 is complete control
Method in brief: (§1)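 Response is a visual 0-to-10 score relative to untreated plants, where 0 means no effect and 10 means complete control, taken twelve to sixteen days after application. Treatments went onto soil at planting and onto foliage of 1- to 4-leaf plants, using a surfactant-containing non-phytotoxic solvent.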

blackgrass = experiment: Test B pre/postemergence blackgrass; format: in vivo, Alopecurus myosuroides; settings: for Blackgrass plant response rating: scale of 0 to 10 where 0 is no effect and 10 is complete control
Method in brief: as §1

surinam grass = experiment: Test B pre/postemergence surinam grass; format: in vivo, Brachiaria decumbens; settings: for B. signalgrass plant response rating: scale of 0 to 10 where 0 is no effect and 10 is complete control
Method in brief: as §1

cocklebur = experiment: Test B pre/postemergence cocklebur; format: in vivo, Xanthium strumarium; settings: for Cocklebur plant response rating: scale of 0 to 10 where 0 is no effect and 10 is complete control
Method in brief: as §1

corn = experiment: Test B pre/postemergence corn; format: in vivo, Zea mays; settings: for Corn plant response rating: scale of 0 to 10 where 0 is no effect and 10 is complete control
Method in brief: as §1

crabgrass = experiment: Test B pre/postemergence crabgrass; format: in vivo, Digitaria sanguinalis; settings: for Crabgrass plant response rating: scale of 0 to 10 where 0 is no effect and 10 is complete control
Method in brief: as §1

giant foxtail = experiment: Test B pre/postemergence giant foxtail; format: in vivo, Setaria faberii; settings: for Giant foxtail plant response rating: scale of 0 to 10 where 0 is no effect and 10 is complete control
Method in brief: as §1

morningglory = experiment: Test B pre/postemergence morningglory; format: in vivo, Ipomoea hederacea; settings: for Morningglory plant response rating: scale of 0 to 10 where 0 is no effect and 10 is complete control
Method in brief: as §1

pigweed = experiment: Test B pre/postemergence pigweed; format: in vivo, Amaranthus retroflexus; settings: for Redroot pigweed plant response rating: scale of 0 to 10 where 0 is no effect and 10 is complete control
Method in brief: as §1

rape = experiment: Test B pre/postemergence rape; format: in vivo, Brassica napus; settings: for Rape plant response rating: scale of 0 to 10 where 0 is no effect and 10 is complete control
Method in brief: as §1

soybean = experiment: Test B pre/postemergence soybean; format: in vivo, Glycine max; settings: for Soybean plant response rating: scale of 0 to 10 where 0 is no effect and 10 is complete control
Method in brief: as §1

sugar beet = experiment: Test B pre/postemergence sugar beet; format: in vivo, Beta vulgaris; settings: for Sugarbeets plant response rating: scale of 0 to 10 where 0 is no effect and 10 is complete control
Method in brief: as §1

velvetleaf = experiment: Test B pre/postemergence velvetleaf; format: in vivo, Abutilon theophrasti; settings: for Velvetleaf plant response rating: scale of 0 to 10 where 0 is no effect and 10 is complete control
Method in brief: as §1

wheat = experiment: Test B pre/postemergence wheat; format: in vivo, Triticum aestivum; settings: for Wheat plant response rating: scale of 0 to 10 where 0 is no effect and 10 is complete control
Method in brief: as §1

wild oat = experiment: Test B pre/postemergence wild oat; format: in vivo, Avena fatua; settings: for Wild oats plant response rating: scale of 0 to 10 where 0 is no effect and 10 is complete control
Method in brief: as §1

purple nutsedge = experiment: Test B pre/postemergence purple nutsedge; format: in vivo, Cyperus rotundus; settings: for Nutsedge plant response rating: scale of 0 to 10 where 0 is no effect and 10 is complete control
Method in brief: as §1

smallflower flatsedge = experiment: Test B flood test smallflower flatsedge; format: in vivo, Cyperus difformis
Procedure: (§2) At the same time, these crop and weed species were also treated with postemergence applications of test chemicals formulated in the same manner. Plants ranged in height from 2 to 18 cm (1- to 4-leaf stage) for postemergence treatments. Plant species in the flood test consisted of rice (Oryza sativa), smallflower flatsedge (Cyperus difformis), duck salad (Heteranthera limosa) and bamyardgrass (Echinochloa crus-galli) grown to the 2-leaf stage for testing. Treated plants and controls were maintained in a greenhouse for twelve to sixteen days, after which all species were compared to controls and visually evaluated. Plant response ratings, summarized in Table B, are based on a scale of 0 to 10 where 0 is no effect and 10 is complete control. A dash (−) response means no test result.

duck salad = experiment: Test B flood test duck salad; format: in vivo, Heteranthera limosa
Procedure: as §2

bamyardgrass = experiment: Test B flood test barnyardgrass; format: in vivo, Echinochloa crus-galli
Procedure: as §2

[1] = Postemergence, Rate 250 g/ha, scale 0 to 10, 0 is no effect, 10 is complete control
[2] = Postemergence, Rate 125 g/ha, scale 0 to 10, 0 is no effect, 10 is complete control
[3] = Preemergence, Rate 62 g/ha, scale 0 to 10 (0 no effect, 10 complete control)
[4] = Rate 62 g/ha, flood test species, Pre-emergence, visual evaluation after twelve to sixteen days
[5] = Rate 125 g/ha, under heading Pre-emergence, flood test species, visual evaluation after twelve to sixteen days
[6] = Rate 250 g/ha, Pre-emergence, flood-test species, scale 0 to 10, 0 is no effect, 10 is complete control
[7] = Rate 500 g/ha, Pre-emergence, flood test species, scale 0 to 10 (0 no effect, 10 complete control)

CCCCCCn1c(=O)on(C(=O)N(c2ccc(F)cc2)C(C)C)c1=O [Compound 389]
Plant response rating, Bedstraw (bedstraw; [1]): 5
Bedstraw plant response rating (bedstraw; Postemergence): 7
Bedstraw plant response rating (bedstraw; Preemergence): 10
Plant response rating, Blackgrass (blackgrass; [2]): 0
Plant response rating, Blackgrass (blackgrass; [1]): 6
Blackgrass plant response rating (blackgrass; Postemergence, Rate 500 g/ha): 6
Plant response rating, Blackgrass (blackgrass; [3]): 0
Blackgrass plant response rating (0 to 10 scale) (blackgrass; Preemergence, Rate 125 g/ha): 2
Blackgrass plant response rating (blackgrass; Preemergence, Rate 250 g/ha): 6
Blackgrass plant response rating (blackgrass; Preemergence, Rate 500 g/ha): 9
Blackgrass plant response rating (blackgrass; Rate 62 g/ha, Postemergence): 0
Plant response rating, B. signalgrass (surinam grass; [2]): 0
Plant response rating, B. signalgrass (surinam grass; [1]): 0
B. signalgrass plant response rating (surinam grass; Postemergence, Rate 500 g/ha): 0
Plant response rating, B. signalgrass (surinam grass; [3]): 0
B. signalgrass plant response rating (0 to 10 scale, 0 is no effect, 10 is complete control) (surinam grass; Preemergence, Rate 125 g/ha): 0
B. signalgrass plant response rating (surinam grass; Preemergence, Rate 250 g/ha): 0
B. signalgrass plant response rating (surinam grass; Preemergence, Rate 500 g/ha): 4
B. signalgrass plant response rating (surinam grass; Rate 62 g/ha, Postemergence): 0
Plant response rating, Cocklebur (cocklebur; [2]): 0
Plant response rating, Cocklebur (cocklebur; [1]): 0
Cocklebur plant response rating (cocklebur; Postemergence, Rate 500 g/ha): 0
Plant response rating, Cocklebur (cocklebur; [3]): 0
Cocklebur plant response rating (0 to 10 scale) (cocklebur; Preemergence, Rate 125 g/ha): 0
Cocklebur plant response rating (cocklebur; Preemergence, Rate 250 g/ha): 0
Cocklebur plant response rating (cocklebur; Preemergence, Rate 500 g/ha): 0
Cocklebur plant response rating (cocklebur; Rate 62 g/ha, Postemergence): 0
Plant response rating, Corn (corn; [2]): 0
Plant response rating, Corn (corn; [1]): 0
Corn plant response rating (corn; Postemergence, Rate 500 g/ha): 0
Plant response rating, Corn (corn; [3]): 0
Corn plant response rating (0 to 10 scale) (corn; Preemergence, Rate 125 g/ha): 0
Corn plant response rating (corn; Preemergence, Rate 250 g/ha): 0
Corn plant response rating (corn; Preemergence, Rate 500 g/ha): 4
Corn plant response rating (corn; Rate 62 g/ha, Postemergence): 0
Plant response rating, Crabgrass (crabgrass; [2]): 3
Plant response rating, Crabgrass (crabgrass; [1]): 4
Crabgrass plant response rating (crabgrass; Postemergence, Rate 500 g/ha): 7
Plant response rating, Crabgrass (crabgrass; [3]): 1
Crabgrass plant response rating (0 to 10 scale) (crabgrass; Preemergence, Rate 125 g/ha): 2
Crabgrass plant response rating (crabgrass; Preemergence, Rate 250 g/ha): 9
Crabgrass plant response rating (crabgrass; Preemergence, Rate 500 g/ha): 10
Crabgrass plant response rating (crabgrass; Rate 62 g/ha, Postemergence): 0
Plant response rating, Giant foxtail (giant foxtail; [2]): 2
Plant response rating, Giant foxtail (giant foxtail; [1]): 7
Giant foxtail plant response rating (giant foxtail; Postemergence, Rate 500 g/ha): 8
Plant response rating, Giant foxtail (giant foxtail; [3]): 2
Giant foxtail plant response rating (0 to 10 scale) (giant foxtail; Preemergence, Rate 125 g/ha): 8
Giant foxtail plant response rating (giant foxtail; Preemergence, Rate 250 g/ha): 10
Giant foxtail plant response rating (giant foxtail; Preemergence, Rate 500 g/ha): 10
Giant foxtail plant response rating (giant foxtail; Rate 62 g/ha, Postemergence): 0
Plant response rating, Morningglory (morningglory; [1]): 8
Morningglory plant response rating (morningglory; Postemergence, Rate 500 g/ha): 10
Plant response rating, Morningglory (morningglory; [3]): 0
Morningglory plant response rating (0 to 10 scale) (morningglory; Preemergence, Rate 125 g/ha): 0
Morningglory plant response rating (morningglory; Preemergence, Rate 250 g/ha): 0
Morningglory plant response rating (morningglory; Preemergence, Rate 500 g/ha): 1
Morningglory plant response rating (morningglory; Rate 62 g/ha, Postemergence): 2
Plant response rating, Redroot pigweed (pigweed; [1]): 0
Redroot pigweed plant response rating (pigweed; Postemergence, Rate 500 g/ha): 7
Plant response rating, Redroot pigweed (pigweed; [3]): 0
Redroot pigweed plant response rating (0 to 10 scale) (pigweed; Preemergence, Rate 125 g/ha): 0
Redroot pigweed plant response rating (pigweed; Preemergence, Rate 250 g/ha): 4
Redroot pigweed plant response rating (pigweed; Preemergence, Rate 500 g/ha): 10
Redroot pigweed plant response rating (pigweed; Rate 62 g/ha, Postemergence): 0
Plant response rating, Rape (rape; [1]): 2
Rape plant response rating (rape; Postemergence, Rate 500 g/ha): 4
Plant response rating, Rape (rape; [3]): 0
Rape plant response rating (0 to 10 scale) (rape; Preemergence, Rate 125 g/ha): 0
Rape plant response rating (rape; Preemergence, Rate 250 g/ha): 0
Rape plant response rating (rape; Preemergence, Rate 500 g/ha): 8
Plant response rating, Soybean (soybean; [1]): 2
Soybean plant response rating (soybean; Postemergence, Rate 500 g/ha): 3
Plant response rating, Soybean (soybean; [3]): 0
Soybean plant response rating (0 to 10 scale) (soybean; Preemergence, Rate 125 g/ha): 0
Soybean plant response rating (soybean; Preemergence, Rate 250 g/ha): 0
Soybean plant response rating (soybean; Preemergence, Rate 500 g/ha): 3
Soybean plant response rating (soybean; Rate 62 g/ha, Postemergence): 2
Plant response rating, Sugarbeets (sugar beet; [1]): 0
Sugarbeets plant response rating (sugar beet; Postemergence, Rate 500 g/ha): 0
Plant response rating, Sugarbeets (sugar beet; [3]): 0
Sugarbeets plant response rating (0 to 10 scale) (sugar beet; Preemergence, Rate 125 g/ha): 0
Sugarbeets plant response rating (sugar beet; Preemergence, Rate 250 g/ha): 0
Sugarbeets plant response rating (sugar beet; Preemergence, Rate 500 g/ha): 4
Sugarbeets plant response rating (sugar beet; Rate 62 g/ha, Postemergence): 0
Plant response rating, Velvetleaf (velvetleaf; [1]): 0
Velvetleaf plant response rating (velvetleaf; Postemergence, Rate 500 g/ha): 0
Plant response rating, Velvetleaf (velvetleaf; [3]): 0
Velvetleaf plant response rating (0 to 10 scale) (velvetleaf; Preemergence, Rate 125 g/ha): 0
Velvetleaf plant response rating (velvetleaf; Preemergence, Rate 250 g/ha): 0
Velvetleaf plant response rating (velvetleaf; Preemergence, Rate 500 g/ha): 2
Velvetleaf plant response rating (velvetleaf; Rate 62 g/ha, Postemergence): 0
Plant response rating, Wheat (wheat; [1]): 0
Wheat plant response rating (wheat; Postemergence, Rate 500 g/ha): 0
Plant response rating, Wheat (wheat; [3]): 0
Wheat plant response rating (0 to 10 scale) (wheat; Preemergence, Rate 125 g/ha): 0
Wheat plant response rating (wheat; Preemergence, Rate 250 g/ha): 0
Wheat plant response rating (wheat; Preemergence, Rate 500 g/ha): 0
Wheat plant response rating (wheat; Rate 62 g/ha, Postemergence): 0
Plant response rating, Wild oats (wild oat; [1]): 0
Wild oats plant response rating (wild oat; Postemergence, Rate 500 g/ha): 0
Plant response rating, Wild oats (wild oat; [3]): 0
Wild oats plant response rating (0 to 10 scale) (wild oat; Preemergence, Rate 125 g/ha): 0
Wild oats plant response rating (wild oat; Preemergence, Rate 250 g/ha): 1
Wild oats plant response rating (wild oat; Preemergence, Rate 500 g/ha): 4
Wild oats plant response rating (wild oat; Rate 62 g/ha, Postemergence): 0
Plant response rating, Nutsedge (purple nutsedge; [1]): 0
Nutsedge plant response rating (purple nutsedge; Postemergence, Rate 500 g/ha): 0
Plant response rating, Nutsedge (purple nutsedge; [3]): 0
Nutsedge plant response rating (0 to 10 scale) (purple nutsedge; Preemergence, Rate 125 g/ha): 0
Nutsedge plant response rating (purple nutsedge; Preemergence, Rate 250 g/ha): 0
Nutsedge plant response rating (purple nutsedge; Preemergence, Rate 500 g/ha): 0
Nutsedge plant response rating (purple nutsedge; Rate 62 g/ha, Postemergence): 0
Plant response rating, S. Flatsedge (0 to 10 scale, 0 is no effect, 10 is complete control) (smallflower flatsedge; [4]): 0
S. Flatsedge plant response rating (0 to 10 scale, 0 is no effect, 10 is complete control) (smallflower flatsedge; [5]): 0
S. Flatsedge plant response rating (smallflower flatsedge; [6]): 0
S. Flatsedge plant response rating (smallflower flatsedge; [7]): 0
Plant response rating, Ducksalad (0 to 10 scale, 0 is no effect, 10 is complete control) (duck salad; [4]): 0
Ducksalad plant response rating (0 to 10 scale, 0 is no effect, 10 is complete control) (duck salad; [5]): 0
Ducksalad plant response rating (duck salad; [6]): 0
Ducksalad plant response rating (duck salad; [7]): 3
Plant response rating, Barnyardgrass (0 to 10 scale, 0 is no effect, 10 is complete control) (bamyardgrass; [4]): 0
Barnyardgrass plant response rating (0 to 10 scale, 0 is no effect, 10 is complete control) (bamyardgrass; [5]): 0
Barnyardgrass plant response rating (bamyardgrass; [6]): 0
Barnyardgrass plant response rating (bamyardgrass; [7]): 0
